The values that follow come from patent publication US20060270591A1, “Androgen receptor coregulators” (priority 2002, published 2006).

For test [1], the target named is wtAR and gelsolin (Homo sapiens, UniProt P10275). The conditions noted are these: COS-7 cells; T 10 nM; HF 1 μM.
Test [2] deals with mtARt877s and gelsolin (Homo sapiens, UniProt P10275, T878S). The conditions noted are these: 10 μM HF, 100 nM DHT, 1 μM E2, 1 μM P; compared to EtOH. An excerpt: Y190 yeast cells were transformed with pAS2-mtARt877s (aa 595-918) and pATC2-gelsolin (aa 281-731).
Test [3] relates to AR. The experiment in a line: AR reporter gene assay with gelsolin (Example 5). In kind it is cell-based, human. The conditions noted are these: 100 nM HF; normal 10% FCS medium; no gelsolin. The text has this:
468. A C-terminal fragment of gelsolin (aa 281-731) was isolated from pACT2 encoding gelsolin, and inserted into pSG5-Gal4 DNA-binding domain (DBD) (constructed by Dr. R. Nakao). AR fragment (aa 36-918) was inserted into pCMX-VP16 (a gift from Dr. D. Chen). For gelsolin expression vector, a full-length cDNA fragment of gelsolin from LKCG, a gift from Dr. D. Kwiatkowski (Northwestern University, Evanston, Ill.), was inserted into pSG5. Dr. M. L. Lu (Harvard Medical School, Boston, Mass.) provided the p (ARE) 4-luciferase (LUC) plasmid. Dr. A. Mizokami (University of Kanazawa, Kanazawa, Japan) provided the pGL3-PSA6.0LUC plasmid. The expression plasmids of AR peptides were constructed by inserting the PCR amplified cDNA fragment of AR DBD into pFlag-CMV (Sigma) and the fragments of AR LBD into pCDNA-flag plasmid. Transfection protocol and reporter gene assay were described in previous report (Ting et al. Proc Natl Acad Sci USA 99, 661-666 (2002)).
A general note: A reporter such as luciferase makes a cellular process visible.

The test system of test [4] is AR. The experiment in a line: AR transactivation reporter assay (CAT/LUC) with ARA267 (Example 4). Type of test: cell-based, human. The protocol:
(§1) 444. Human prostate cancer cell line PC-3 and DU145, lung cancer cell line H1299, and hepatoma cell line HepG2 were grown in DMEM-10% FCS. For transfection the cells were plated in 60-mm dishes and experiments performed by modified calcium phosphate technique as previously described (Yeh et al. Proc. Natl. Acad. Sci. U.S.A. (1996) 93, 5517-5521). After incubation for 24 h, the cells were treated with steroid hormones for another 24 h, then harvested for the chloramphenicol acetyltransferase (CAT) assay. Mouse mammary tumor virus-(MMTV)-CAT reporter gene was used to measure AR transcription activity, and a β-Galactosidase expression gene (pCMV-O-gal) was incorporated into the experiments as an internal control (Yeh et al. Proc. Natl. Acad. Sci. U.S.A. (1996) 93, 5517-5521). CAT activity was visualized by a PhosphorImager (Molecular Dynamics) and quantitated by IMAGEQUANT software (molecular Dynamics). For Luciferase (LUC) assay, pG5-LUC, pMMTV-LUC or estrogen response element (ERE)-LUC plasmid was used as the reporter gene and SV40-PRL (promega) was used as an internal control. Dual-luciferase Reporter 1000 Assay System (promega) was employed to measure the luciferase activity.

The subject of test [5] is PSA. Put plainly: Western blot of PSA in LNCaP cells transfected with ARA267. In kind it is cell-based, human. The following applies: 10 nM DHT. The protocol: 447. LNCaP cells were transfected with pSG5ARA267 and pSG5 vector by Superfect (Qiagen) respectively. […] The cells were harvested and lysed following the protocol from Santa Cruz Biotechnology. In each sample, 50 μg whole-cell lysis proteins were separated on 10% SDS-polyacrylamide gel. After transfering, the membrane was blotted with polyclonal AR antibody (NH27), PSA antibody (Dako Corporation), and β-actin antibody (Santa Cruz Biotechnology). The bands were developed with an alkaline phosphatase detection kit (Bio-Rad).
(A western blot detects proteins with antibodies after separation by electrophoresis.)

In test [6] the target is T1, GR (Homo sapiens, UniProt P04150).
T1 sequence (P04150 1-777): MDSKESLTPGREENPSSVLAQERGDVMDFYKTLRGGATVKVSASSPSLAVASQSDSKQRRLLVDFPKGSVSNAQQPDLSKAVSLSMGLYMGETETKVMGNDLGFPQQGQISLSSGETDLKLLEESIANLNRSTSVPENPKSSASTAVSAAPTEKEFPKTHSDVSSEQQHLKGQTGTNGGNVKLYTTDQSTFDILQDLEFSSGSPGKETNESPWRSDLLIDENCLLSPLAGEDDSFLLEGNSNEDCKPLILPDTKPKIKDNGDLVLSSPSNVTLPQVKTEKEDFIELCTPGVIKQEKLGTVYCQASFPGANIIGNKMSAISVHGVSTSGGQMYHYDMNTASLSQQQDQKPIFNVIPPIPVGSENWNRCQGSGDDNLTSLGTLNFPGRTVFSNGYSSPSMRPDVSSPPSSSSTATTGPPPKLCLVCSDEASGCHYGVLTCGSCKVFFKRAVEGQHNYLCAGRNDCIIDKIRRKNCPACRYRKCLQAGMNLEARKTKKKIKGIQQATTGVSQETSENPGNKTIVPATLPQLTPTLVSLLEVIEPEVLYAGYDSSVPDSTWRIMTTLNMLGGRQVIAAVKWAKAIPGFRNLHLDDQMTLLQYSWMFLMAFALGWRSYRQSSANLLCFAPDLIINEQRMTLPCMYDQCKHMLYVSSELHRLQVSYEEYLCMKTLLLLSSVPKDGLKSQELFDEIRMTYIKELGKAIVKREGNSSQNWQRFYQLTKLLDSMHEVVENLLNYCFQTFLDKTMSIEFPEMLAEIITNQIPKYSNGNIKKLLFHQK
Put plainly: GR transactivation luciferase assay with ARA267. Type of test: cell-based. Details: expressed in transfected cells; host or cells: DU145, PC-3, HepG2. The following applies: HepG2 cells. As for the experimental part: (§2) 31. […] The luciferase activity of each receptor without ARA267 and ligands was set as one fold. All values represent the mean SD of three independent experiments.
as §1

Test [7] addresses T2, ER (Homo sapiens, UniProt P03372).
T2 sequence (P03372 1-595): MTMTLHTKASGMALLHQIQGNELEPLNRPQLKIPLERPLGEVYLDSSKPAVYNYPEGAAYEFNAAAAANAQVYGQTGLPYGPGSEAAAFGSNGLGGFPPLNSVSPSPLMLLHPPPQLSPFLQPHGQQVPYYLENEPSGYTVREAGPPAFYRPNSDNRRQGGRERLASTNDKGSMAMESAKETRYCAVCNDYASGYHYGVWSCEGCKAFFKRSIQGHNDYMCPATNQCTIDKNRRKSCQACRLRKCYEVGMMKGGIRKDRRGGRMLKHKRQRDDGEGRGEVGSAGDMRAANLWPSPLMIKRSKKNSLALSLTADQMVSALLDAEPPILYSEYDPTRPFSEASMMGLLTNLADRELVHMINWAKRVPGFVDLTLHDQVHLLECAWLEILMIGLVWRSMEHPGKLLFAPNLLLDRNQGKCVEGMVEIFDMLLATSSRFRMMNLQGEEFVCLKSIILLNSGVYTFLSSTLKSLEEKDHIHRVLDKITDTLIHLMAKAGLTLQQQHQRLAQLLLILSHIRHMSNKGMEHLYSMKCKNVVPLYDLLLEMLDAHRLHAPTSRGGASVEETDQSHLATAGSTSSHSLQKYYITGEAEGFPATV
The experiment in a line: ER transactivation luciferase assay with ARA267. In kind it is cell-based. Also noted: expressed in transfected cells; host or cells: DU145, HepG2, PC3. The following applies: HepG2 cells. As for the experimental part:
as §2, §1

Regarding `CC(C)(O)C(=O)Nc1ccc([N+](=O)[O-])c(C(F)(F)F)c1` [HF, hydroxyflutamide], the “interaction between wtAR and gelsolin” value in test [1] is “induced significant interaction”. Moreover, the “interaction between mtARt877s and gelsolin (β-gal activity)” value in test [2] is on record as “promoted significant interaction”. Moreover, in test [3], the “inhibition of AR transactivation” value is given as 80%.

Turning to “ARA267: AR coregulator of 2427 amino acids containing a SET domain, calculated molecular weight 267 kD”, in test [4] (10 nM E2), the “effect on AR transactivation” value is given as “marginal effects”. The “effect on DHT-mediated AR transactivation” value in test [4] (PC-3 cells, MMTV-CAT) is “enhance DHT-mediated AR transactivation in a dose-dependent manner”. Further, the “effect on DHT-induced PSA protein expression” value in test [5] is listed as “enhance DHT-induced PSA protein expression”. Besides, the “effect on the transactivation of GR” value in test [6] is reported as “marginal effect”. For the same compound, in test [7], the “effect on the transactivation of ER” value is “marginal effect”.
